Results as given in US7666875B2, “Hydantoin compounds” (Eisai R&D Management Co., Ltd., priority 2005, dated 2010).
Read-outs that look alike come from different tables or passages of the source.

Biological target: T1, human T-bet (Homo sapiens, UniProt Q9UL17)
T1 construct: expressed in transfected cells; host or cells: engineered HEK cells (HEKT-bet)
T1 sequence (Q9UL17 1-535): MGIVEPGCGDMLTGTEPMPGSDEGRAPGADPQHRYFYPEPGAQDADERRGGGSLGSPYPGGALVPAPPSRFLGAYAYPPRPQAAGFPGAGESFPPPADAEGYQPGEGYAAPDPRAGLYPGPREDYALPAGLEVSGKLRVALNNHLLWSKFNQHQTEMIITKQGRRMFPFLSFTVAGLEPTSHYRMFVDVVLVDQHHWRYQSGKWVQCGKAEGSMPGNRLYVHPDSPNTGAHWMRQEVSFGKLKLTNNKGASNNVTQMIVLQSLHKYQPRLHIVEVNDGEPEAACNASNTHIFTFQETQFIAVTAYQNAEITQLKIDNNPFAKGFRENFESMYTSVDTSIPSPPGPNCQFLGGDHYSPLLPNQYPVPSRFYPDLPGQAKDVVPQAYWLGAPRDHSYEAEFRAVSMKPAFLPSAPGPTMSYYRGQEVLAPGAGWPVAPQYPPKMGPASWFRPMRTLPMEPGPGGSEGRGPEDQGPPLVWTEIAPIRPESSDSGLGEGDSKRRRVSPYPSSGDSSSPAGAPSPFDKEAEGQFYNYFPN
Test: HEKT-bet-luc assay (T-bet dependent luciferase reporter in engineered HEK cells)
Type: cell-based
Method: HEKT-bet-luc assay: This assay measures a T-bet dependent reporter (luciferase) activity in engineered HEK cells that express a human T-bet and a T-box responsive element driving luciferase reporter. HEKT-bet cells were plated at 2×10^4/well in 96-well plate and compound was added into cell culture for 24 hours. Luciferase activity was measured by adding 50 μl of Steady-Glo reagent (Promega) and samples were read in Victor V reader (PerkinElmer). The IC50 values were calculated utilizing a maximum value corresponding to the amount of luciferase in the absence of a test compound and a minimum value corresponding to a test compound value obtained at maximum inhibition.
Determination of Normalized HEKT-bet IC50 values: Compounds were assayed in microtiter plates. Each plate included a reference compound which was ER-213038. The un-normalized IC50 value for a particular compound was divided by the IC50 value determined for the reference compound in the same microtiter plate to provide a relative potency value. The relative potency value was then multiplied by the established potency of the reference compound to provide the normalized HEKT-bet IC50 value. […] The IC50 values provided herein were obtained using this normalization method.

[1] = Table 4, HEKT-bet cells, compound 24 hours, IC50 normalized to reference ER-213038, read-out: IC50

SMILES | IC50 [1] | IC50 (reference compound used for normalization on each microtiter plate, read-out: established potency of the reference compound (HEKT-bet IC50))
COCCN1C(=O)N(Cc2cccc(OC)c2)C(=O)C12CCN(Cc1cc(OC)cc(OC)c1F)CC2 [Example 146] | 142 nM | –
COCCN1C(=O)N(Cc2ccc3ccccc3c2)C(=O)C12CCN(Cc1cc(OC)cc(OC)c1)CC2 [Example 151] | 148 nM | –
COCCN1C(=O)N(C/C=C/c2cccc3ccccc23)C(=O)C12CCN(Cc1ccccc1)CC2 [Example 152] | 149 nM | –
COCCN1C(=O)N(CCCOc2ccccc2)C(=O)C12CCN(Cc1cccc3ccccc13)CC2 [Example 153] | 151 nM | –
COCN1C(=O)N(Cc2cc(OC)cc(OC)c2)C(=O)C12CCN(Cc1cc(OC)cc(OC)c1)CC2 [Example 154] | 153 nM | –
COc1cccc(CN2C(=O)N(Cc3ccc(-n4cccn4)cc3)C3(CCN(Cc4cc(OC)cc(OC)c4)CC3)C2=O)c1 [Example 155] | 159 nM | –
COCCN1C(=O)N(Cc2cccc(F)c2)C(=O)C12CCN(Cc1cc(OC)cc(OC)c1)CC2 [Example 163] | 182 nM | –
COCCN1C(=O)N(C/C=C/c2ccccc2F)C(=O)C12CCN(Cc1ccccc1)CC2 [Example 165] | 183 nM | –
CCN1C(=O)N(Cc2cccc(OC)c2)C(=O)C12CCN(Cc1cc(OC)cc(OC)c1)CC2 [Example 167] | 187 nM | –
COCCN1C(=O)N(C/C=C/c2ccccc2)C(=O)C12CCN(Cc1ccccc1)CC2 [Example 171] | 191 nM | –
COc1cccc(CN2C(=O)N(Cc3cccnc3)C3(CCN(Cc4cccc5ccccc45)CC3)C2=O)c1 [Example 173] | 196 nM | –
COc1cccc(CN2CCC3(CC2)NC(=O)N(C/C=C/c2ccccc2)C3=O)c1 [Example 174] | 198 nM | –
COCCN1C(=O)N(Cc2cccc(OC)c2)C(=O)C12CCN(Cc1cccc(N3CCCC3)c1)CC2 [Example 176] | 203 nM | –
CCN1C(=O)N(Cc2ccc3ccccc3c2)C(=O)C12CCN(Cc1cc(OC)cc(OC)c1)CC2 [Example 177] | 205 nM | –
COc1cccc(CN2C(=O)N(Cc3ccccn3)C3(CCN(Cc4cc(OC)cc(OC)c4)CC3)C2=O)c1 [Example 179] | 215 nM | –
COCCN1C(=O)N(Cc2cccc(OC)c2)C(=O)C12CCN(Cc1cc3c(OC)cccc3cc1OC)CC2 [Example 180] | 223 nM | –
O=C1N(C/C=C/c2ccccc2)C(=O)C2(CCN(Cc3cccc4ccccc34)CC2)N1Cc1ccc(-n2cccn2)cn1 [Example 182] | 226 nM | –
COCCN1C(=O)N(Cc2cc(OC)cc(OC)c2)C(=O)C12CCN(Cc1cc(OC)cc(OC)c1)CC2 [Example 183] | 230 nM | –
CN1C(=O)N(C/C=C/c2ccccc2)C(=O)C12CCN(Cc1cccc3ccccc13)CC2 [Example 184] | 235 nM | –
O=C1N(C/C=C/c2ccccc2)C(=O)C2(CCN(Cc3cccc4ccccc34)CC2)N1Cc1cccnc1 [Example 185] | 235 nM | –
COCCN1C(=O)N(CCCc2ccccc2)C(=O)C12CCN(Cc1cc(OC)cc(OC)c1)CC2 [Example 188] | 246 nM | –
COCCN1C(=O)N(Cc2cccc(N(C)C)c2)C(=O)C12CCN(Cc1ccccc1)CC2 [Example 189] | 247 nM | –
COCCN1C(=O)N(C/C=C/c2ccc(C)cc2)C(=O)C12CCN(Cc1ccccc1)CC2 [Example 190] | 251 nM | –
COCCN1C(=O)N(CCCOc2ccccc2)C(=O)C12CCN(Cc1cc(OC)cc(OC)c1)CC2 [Example 195] | 264 nM | –
COCCN1C(=O)N(Cc2ccccc2)C(=O)C12CCN(Cc1cc(OC)cc(OC)c1)CC2 [Example 196] | 268 nM | –
CCN1C(=O)N(Cc2cccc(OC)c2)C(=O)C12CCN(Cc1ccc3ccccc3c1)CC2 [Example 197] | 270 nM | –
COc1cccc(CN2C(=O)N(CCO)C3(CCN(Cc4cc(OC)cc(OC)c4)CC3)C2=O)c1 [Example 200] | 285 nM | –
COc1cc(CN2CCC3(CC2)C(=O)N(C/C=C/c2ccccc2)C(=O)N3Cc2cccc3cccnc23)cc(OC)c1 [Example 201] | 288 nM | –

Continued, values first:

IC50 [1] | IC50 (reference compound used for normalization on each microtiter plate, read-out: established potency of the reference compound (HEKT-bet IC50)) | SMILES
142 nM | – | COCCN1C(=O)N(Cc2cccc(OC)c2)C(=O)C12CCN(Cc1ccc3c4c(cccc14)CC3)CC2 [Example 147]
143 nM | – | COc1cccc(CN2C(=O)N(C)C3(CCN(Cc4cccc5ccccc45)CC3)C2=O)c1 [Example 148]
147 nM | – | COCCN1C(=O)N(Cc2cccc(OC)c2)C(=O)C12CCN(Cc1cc(C)ccc1C)CC2 [Example 150]
159 nM | – | COCCN1C(=O)N(Cc2cccc(OC)c2)C(=O)C12CCN(Cc1cccc(-c3ccc(O)cc3)c1)CC2 [Example 156]
161 nM | – | COCCN1C(=O)N(Cc2cccc(OC)c2)C(=O)C12CCN(Cc1cc3ccccc3c3ccccc13)CC2 [Example 157]
164 nM | – | CCc1ccccc1CN1CCC2(CC1)C(=O)N(Cc1cccc(OC)c1)C(=O)N2CCOC [Example 158]
166 nM | – | COCCN1C(=O)N(Cc2cccc(OC)c2)C(=O)C12CCN(Cc1cccc(Br)c1)CC2 [Example 159]
168 nM | – | COCCN1C(=O)N(Cc2cccc(OC)c2)C(=O)C12CCN(Cc1c3ccccc3cc3ccccc13)CC2 [Example 160]
169 nM | – | COCCN1C(=O)N(Cc2cccc(OC)c2)C(=O)C12CCN(Cc1ccc3ccccc3c1)CC2 [Example 161]
172 nM | – | COCCN1C(=O)N(Cc2ccc3ccccc3c2)C(=O)C12CCN(Cc1cccc(C)c1)CC2 [Example 162]
182 nM | – | COCCN1C(=O)N(Cc2cccc(OC)c2)C(=O)C12CCN(Cc1c(C)c(C)c(C)c(C)c1C)CC2 [Example 164]
184 nM | – | COCCN1C(=O)N(Cc2ccc3ccccc3c2)C(=O)C12CCN(Cc1cccc(OC)c1)CC2 [Example 166]
190 nM | – | CCN1C(=O)N(Cc2cccc(OC)c2)C(=O)C12CCN(Cc1cccc3ccccc13)CC2 [Example 168]
190 nM | – | COCCN1C(=O)N(Cc2cccc(OC)c2)C(=O)C12CCN(Cc1cccc3c1Cc1ccccc1-3)CC2 [Example 169]
– | 190 nM | COCCN1C(=O)N(Cc2cccc(OC)c2)C(=O)C12CCN(Cc1cccc(OC)c1)CC2 [Example 170]
193 nM | – | COCCN1C(=O)N(Cc2cccc(OC)c2)C(=O)C12CCN(Cc1csc3ccccc13)CC2 [Example 172]
200 nM | – | COCCN1C(=O)N(Cc2cccc(OC)c2)C(=O)C12CCN(Cc1c3ccccc3c(C)c3ccccc13)CC2 [Example 175]
205 nM | – | COCCN1C(=O)N(Cc2cccc(OC)c2)C(=O)C12CCN(Cc1cccc(OC)c1)CC2 [Example 178]
225 nM | – | COCCN1C(=O)N(Cc2cccc(OC)c2)C(=O)C12CCN(Cc1cccc(-c3ccccc3)c1)CC2 [Example 181]
236 nM | – | COCCN1C(=O)N(Cc2cccc(OC)c2)C(=O)C12CCN(Cc1c(C)cc(C)cc1C)CC2 [Example 186]
243 nM | – | COCCN1C(=O)N(Cc2ccc3ccccc3c2)C(=O)C12CCN(Cc1cccc3ccccc13)CC2 [Example 187]
253 nM | – | COCCN1C(=O)N(Cc2cccc(OC)c2)C(=O)C12CCN(Cc1cccc3ccccc13)CC2 [Example 191]
260 nM | – | COCCN1C(=O)N(Cc2cccc(OC)c2)C(=O)C12CCN(Cc1c(C)c(C)cc(C)c1C)CC2 [Example 192]
261 nM | – | COCCN1C(=O)N(Cc2cccc(OC)c2)C(=O)C12CCN(Cc1ccccc1C)CC2 [Example 193]
262 nM | – | COCCN1C(=O)N(Cc2cccc(OC)c2)C(=O)C12CCN(Cc1ccc(N(C)C)c3ccccc13)CC2 [Example 194]
279 nM | – | COCCN1C(=O)N(Cc2cccc(OC)c2)C(=O)C12CCN(Cc1ccc(C)cc1C)CC2 [Example 199]
